Measurements published in ChEMBL document CHEMBL4340549, “Design, synthesis and biological evaluation of isochroman-4-one hybrids bearing piperazine moiety as antihypertensive agent candidates” (Bioorg Med Chem, 2019).

Key:
Rattus norvegicus [1] = assay: Effect on heart rate in spontaneously hypertensive rat assessed as heart rate level at 80 mg/kg, po measured after 6 hrs by tail-cuff method (reference value: 411.12 +/- 19.1 bpm); format: ADME, organism-based; conditions: in vivo
Rattus norvegicus [2] = assay: Antihypertensive activity in spontaneously hypertensive rat assessed as mean arterial pressure at 80 mg/kg, po measured after 6 hrs by tail-cuff method (reference value: 151.48 +/- 12.24 mmHg); format: functional
[3] = target: T1, Alpha-1D adrenergic receptor (Rattus norvegicus, UniProt P23944); assay: Antagonist activity at alpha-1D adrenergic receptor in SPF rat vas thoracic aorta assessed as inhibition of noradrenaline-induced contractions; conditions: read-out: pA2 (converted)
T1 sequence (P23944 whole entry): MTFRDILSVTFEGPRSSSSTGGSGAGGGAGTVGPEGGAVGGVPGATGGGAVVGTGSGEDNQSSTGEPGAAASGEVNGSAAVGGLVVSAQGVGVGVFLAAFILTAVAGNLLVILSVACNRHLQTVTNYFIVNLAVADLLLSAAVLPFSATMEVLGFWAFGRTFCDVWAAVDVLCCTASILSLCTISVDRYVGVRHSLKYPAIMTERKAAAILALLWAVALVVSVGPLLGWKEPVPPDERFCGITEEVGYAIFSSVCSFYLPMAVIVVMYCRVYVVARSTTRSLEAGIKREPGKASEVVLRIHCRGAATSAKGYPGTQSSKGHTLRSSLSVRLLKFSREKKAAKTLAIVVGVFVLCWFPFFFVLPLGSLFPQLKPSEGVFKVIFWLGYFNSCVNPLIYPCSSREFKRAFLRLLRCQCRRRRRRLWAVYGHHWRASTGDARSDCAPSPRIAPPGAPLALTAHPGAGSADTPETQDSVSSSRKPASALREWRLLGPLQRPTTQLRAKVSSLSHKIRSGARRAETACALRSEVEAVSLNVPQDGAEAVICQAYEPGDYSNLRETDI

[4] = target: T2, Alpha-1B adrenergic receptor (Rattus norvegicus, UniProt P15823); assay: Antagonist activity at alpha-1b adrenergic receptor in SPF rat spleen assessed as inhibition of noradrenaline-induced contractions; format: tissue-based; conditions: read-out: pA2 (converted)
T2 sequence (P15823 whole entry): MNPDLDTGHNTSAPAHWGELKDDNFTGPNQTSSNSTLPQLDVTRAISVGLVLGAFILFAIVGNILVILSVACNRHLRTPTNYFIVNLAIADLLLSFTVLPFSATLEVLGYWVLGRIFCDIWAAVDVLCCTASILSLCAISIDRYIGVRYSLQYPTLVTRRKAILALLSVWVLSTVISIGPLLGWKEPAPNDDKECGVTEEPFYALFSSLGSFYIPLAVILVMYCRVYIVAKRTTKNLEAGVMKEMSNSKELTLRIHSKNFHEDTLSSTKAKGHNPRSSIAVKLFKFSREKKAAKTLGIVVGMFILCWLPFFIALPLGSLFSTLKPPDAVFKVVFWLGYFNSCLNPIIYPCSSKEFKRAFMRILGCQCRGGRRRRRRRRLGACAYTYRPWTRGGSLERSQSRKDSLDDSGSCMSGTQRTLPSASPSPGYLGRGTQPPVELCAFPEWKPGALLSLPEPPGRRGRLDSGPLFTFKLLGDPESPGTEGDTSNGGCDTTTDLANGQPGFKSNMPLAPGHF

Rattus norvegicus [5] = species on record: Rattus norvegicus; assay: Ratio of pA2 for alpha-1b adrenergic receptor in SPF rat spleen to pA2 for alpha-1a adrenergic receptor in SPF rat prostatic vas deferens; format: tissue-based
Rattus norvegicus [6] = assay: Antihypertensive activity in spontaneously hypertensive rat assessed as diastolic arterial pressure at 80 mg/kg, po measured after 0 hrs by tail-cuff method (reference value: 149.50 +/- 5.4 mmHg); format: functional
Rattus norvegicus [7] = assay: Antihypertensive activity in spontaneously hypertensive rat assessed as mean arterial pressure at 80 mg/kg, po measured after 0 hrs by tail-cuff method (reference value: 161.70 +/- 5.12 mmHg); format: functional
Rattus norvegicus [8] = assay: Effect on heart rate in spontaneously hypertensive rat assessed as heart rate level at 80 mg/kg, po measured after 0 hrs by tail-cuff method (reference value: 413.17 +/- 10.5 bpm); format: ADME, organism-based; conditions: in vivo
Rattus norvegicus [9] = assay: Antihypertensive activity in spontaneously hypertensive rat assessed as systolic arterial pressure at 80 mg/kg, po measured after 1 hr by tail-cuff method (reference value: 185.35 +/- 10.30 mmHg); format: functional
Rattus norvegicus [10] = assay: Antihypertensive activity in spontaneously hypertensive rat assessed as diastolic arterial pressure at 80 mg/kg, po measured after 1 hr by tail-cuff method (reference value: 147.33 +/- 9.8 mmHg); format: functional
Rattus norvegicus [11] = assay: Antihypertensive activity in spontaneously hypertensive rat assessed as systolic arterial pressure at 80 mg/kg, po measured after 2 hrs by tail-cuff method (reference value: 189.20 +/- 12.31 mmHg); format: functional
Rattus norvegicus [12] = assay: Antihypertensive activity in spontaneously hypertensive rat assessed as diastolic arterial pressure at 80 mg/kg, po measured after 2 hrs by tail-cuff method (reference value: 149.90 +/- 6 mmHg); format: functional
Rattus norvegicus [13] = assay: Antihypertensive activity in spontaneously hypertensive rat assessed as mean arterial pressure at 80 mg/kg, po measured after 2 hrs by tail-cuff method (reference value: 163 +/- 8.1 mmHg); format: functional
Rattus norvegicus [14] = assay: Effect on heart rate in spontaneously hypertensive rat assessed as heart rate level at 80 mg/kg, po measured after 2 hrs by tail-cuff method (reference value: 413.2 +/- 15.2 bpm); format: ADME, organism-based; conditions: in vivo
Rattus norvegicus [15] = assay: Antihypertensive activity in spontaneously hypertensive rat assessed as systolic arterial pressure at 80 mg/kg, po measured after 4 hrs by tail-cuff method (reference value: 178.66 +/- 17.18 mmHg); format: functional
Rattus norvegicus [16] = assay: Antihypertensive activity in spontaneously hypertensive rat assessed as diastolic arterial pressure at 80 mg/kg, po measured after 4 hrs by tail-cuff method (reference value: 136.12 +/- 5.3 mmHg); format: functional
Rattus norvegicus [17] = assay: Antihypertensive activity in spontaneously hypertensive rat assessed as mean arterial pressure at 80 mg/kg, po measured after 4 hrs by tail-cuff method (reference value: 150.30 +/- 9.26 mmHg); format: functional
Rattus norvegicus [18] = assay: Effect on heart rate in spontaneously hypertensive rat assessed as heart rate level at 80 mg/kg, po measured after 4 hrs by tail-cuff method (reference value: 410.80 +/- 17.4 bpm); format: ADME, organism-based; conditions: in vivo
Rattus norvegicus [19] = assay: Antihypertensive activity in spontaneously hypertensive rat assessed as systolic arterial pressure at 80 mg/kg, po measured after 6 hrs by tail-cuff method (reference value: 179.36 +/- 18.33 mmHg); format: functional
Rattus norvegicus [20] = assay: Antihypertensive activity in spontaneously hypertensive rat assessed as systolic arterial pressure at 80 mg/kg, po measured after 8 hrs by tail-cuff method (reference value: 179.42 +/- 13.70 mmHg); format: functional
Rattus norvegicus [21] = assay: Antihypertensive activity in spontaneously hypertensive rat assessed as mean arterial pressure at 80 mg/kg, po measured after 8 hrs by tail-cuff method (reference value: 153.55 +/- 11.43 mmHg); format: functional
Rattus norvegicus [22] = assay: Effect on heart rate in spontaneously hypertensive rat assessed as heart rate level at 80 mg/kg, po measured after 8 hrs by tail-cuff method (reference value: 412.77 +/- 11.3 bpm); format: ADME, organism-based; conditions: in vivo

For `COc1cc2c(cc1OCC(O)CN1CCN(C(=O)C3CCCO3)CC1)C(=O)C(C)OC2` (configuration not stated), the Activity (Rattus norvegicus [1]) was 411.01 bpm, the Activity (Rattus norvegicus [2]) was 140.83 mmHg and the Kb [3] was 189 to 195 nM. For the same molecule, the Kb [4] was 35.5 nM, the Ratio (Rattus norvegicus [5]) was 6.3 and the Activity (Rattus norvegicus [6]) was 156.23 mmHg. It also gave an Activity (Rattus norvegicus [7]) of 166.7 mmHg, an Activity (Rattus norvegicus [8]) of 415.33 bpm and an Activity (Rattus norvegicus [9]) of 169.21 mmHg. For the same molecule, the Activity (Rattus norvegicus [10]) was 144.15 mmHg, the Activity (Rattus norvegicus [11]) was 150.8 mmHg and the Activity (Rattus norvegicus [12]) was 131.86 mmHg. It also gave an Activity (Rattus norvegicus [13]) of 138.17 mmHg, an Activity (Rattus norvegicus [14]) of 408.14 bpm and an Activity (Rattus norvegicus [15]) of 140.29 mmHg. For the same molecule, the Activity (Rattus norvegicus [16]) was 120.54 mmHg, the Activity (Rattus norvegicus [17]) was 127.12 mmHg and the Activity (Rattus norvegicus [18]) was 405.15 bpm. For the same molecule, the Activity (Rattus norvegicus [19]) was 157.46 mmHg, the Activity (Rattus norvegicus [20]) was 170.38 mmHg and the Activity (Rattus norvegicus [21]) was 151.39 mmHg. The Activity (Rattus norvegicus [22]) was 413.16 bpm.
